{"source": "patent EP2649091B1", "about": "“IMMUNE RESTRICTED PEPTIDES WITH INCREASED EFFICACY” (Stichting Het Nederlands Kanker Instituut, priority 2010, dated 2012)", "key": {"[1]": {"system": "CD8+ T cells with SVYDFFVWL (Melanoma, TRP-2, residues 180-188) specific T cell receptor", "experiment": "T cell activation time course assay, IFNγ production by FACS, TRP-2 epitope", "assay_type": "cell-based", "details": "48H, peptide 50 picomolar", "experimental": "(§1) FACS was employed to obtain results.\nAlso for this epitope, an IFNγ expression time-course experiment was performed. The two distinguishing time points 24H and 48H were taken along at peptide concentrations of 5·10^3 pM, 50 pM and 0.5 pM."}, "[2]": {"system": "CD8+ T cells from Influenza A positive donors sorted using tetramers containing HLA A2.1::[…]", "assay_type": "cell-based"}, "HLA-A0201": {"biological_target": "HLA-A0201 (Homo sapiens, UniProt P04439, D140Y/D185E/D98H/E176V/E277Q/G131W/G231S/I119V/I121R/I166T/I218V/L300P/L318F/N151K/N90K/P208A/P217A/Q86G/Q94H/R138H/R169H/T345S)", "assay_type": "binding"}, "[3]": {"system": "CD8+ T cells from Influenza A positive donors sorted using tetramers containing HLA A2.1::[…]", "assay_type": "cell-based", "remark": "listed apart in the source"}, "[4]": {"system": "LLFGLALIEV-specific CD8+ T cells", "experiment": "Mouse vaccination study, tetramer analysis of blood, LLFGLALIEV", "assay_type": "in vivo", "details": "mice vaccinated with 100 µg peptide with IFA and CpG, all times after day one, versus LLFGLALIEV vaccinated mice", "source_text": "Three mouse vaccination studies were done using three different wild-type epitopes. In all cases, mice were vaccinated with the peptide supplemented with incomplete freunds ajuvant (IFA) and CpG. Analysis was done by analyzing blood samples with tetramers loaded with wild-type peptide in all cases.\nThis was done for both groups of mice."}, "[5]": {"system": "T cell line specific for LLFGLALIEV", "experiment": "T cell activation, FACS based interferon-gamma production assay, Mage-C2 LLFGLALIEV", "source_text": "as §1\nT cell activation was quantified using the FACS based interferon-gamma production assay as materials and methods section. Table 10 HLA binding and T cell activation of modified Melanoma-associated protein C2 (pp-qq) epitopes used in vaccination studies."}, "[6]": {"system": "HLA-A2::Mart-1(26-35) reactive T cells stimulated by T2 cells", "experiment": "T cell activation time course assay, IFNγ production (FACS), Mart-1 epitope", "assay_type": "cell-based", "details": "for % CD8+ T cells producing IFN-γ 0H / Geometric mean IFN-γ in arbitrary fluorescence units 0H: time point 0H (basal); for % CD8+ T cells producing IFN-γ 2H / Geometric mean IFN-γ in arbitrary fluorescence units 2H: time point 2H; for % CD8+ T cells producing IFN-γ 4H / Geometric mean IFN-γ in arbitrary fluorescence units 4H: time point 4H; for % CD8+ T cells producing IFN-γ 24H / Geometric mean IFN-γ in arbitrary fluorescence units 24H: time point 24H; for % CD8+ T cells producing IFN-γ 24H / Geometric mean IFN-γ in arbitrary fluorescence units 24H / % CD8+ T cells producing IFN-γ 48H / Geometric mean IFN-γ in arbitrary fluorescence units 48H: free peptide washed away; for % CD8+ T cells producing IFN-γ 48H / Geometric mean IFN-γ in arbitrary fluorescence units 48H: time point 48H"}}, "note": "“And” between values parts separate entries of the source, which are not always exact repeats. Equal entries are not always repeated. Where no end group is shown, it is not given here. BUTALA = not defined here; am‑phg = not defined here; PHG = not defined here"}
{"substance": "[CSME][2-AOC]YDFFVWL", "values": [{"measurement": "% CD8+ T cells producing IFN-γ", "setting": "[1]", "value": "significantly above background level"}]}
{"substance": "[PHG]I[NLE]GFVFTL", "values": [{"measurement": "% CD8+ T cells producing IFN-γ % IFN", "setting": "[2]", "value": 2.9, "unit": "%"}, {"measurement": "Geometric mean IFN-γ in arbitrary fluorescence units Geo IFN", "setting": "[2]", "value": "270 arbitrary fluorescence units"}, {"measurement": "% inhibition at T=4H and T=24H FP 4h", "setting": "HLA-A0201", "value": 86, "unit": "%"}, {"measurement": "% inhibition at T=4H and T=24H FP 24h", "setting": "HLA-A0201", "value": 84, "unit": "%"}, {"measurement": "IC50 Ratio", "setting": "HLA-A0201", "value": 3}, {"measurement": "% Positive TCR recognition % TCR", "setting": "[3]", "value": 3.26, "unit": "%"}, {"measurement": "Geometric mean IFN in arbitrary fluorescence units Geo TCR", "setting": "[3]", "value": "235 arbitrary fluorescence units"}]}
{"substance": "[PHG][2-AOC]FGLALIEV", "values": [{"measurement": "LLFGLALIEV-specific CD8+ T cells (specific T cell numbers)", "setting": "[4]", "value": "higher"}, {"measurement": "% Positive TCR recognition % TCR", "setting": "[5]", "value": 13.7, "unit": "%"}, {"measurement": "Geometric mean in arbitrary fluorescence units Geo TCR", "setting": "[5]", "value": "108 arbitrary fluorescence units"}]}
{"substance": "[PHG][BUTALA]LGFVFTL ({PHG-BUTALA}-LGFVFTL; reading uncertain)", "values": [{"measurement": "% CD8+ T cells producing IFN-γ % IFN", "setting": "[2]", "value": 2.5, "unit": "%"}, {"measurement": "Geometric mean IFN-γ in arbitrary fluorescence units Geo IFN", "setting": "[2]", "value": "249 arbitrary fluorescence units"}, {"measurement": "% inhibition at T=4H and T=24H FP 24h", "setting": "HLA-A0201", "value": 75, "unit": "%"}, {"measurement": "% Positive TCR recognition % TCR", "setting": "[3]", "value": 3.16, "unit": "%"}, {"measurement": "Geometric mean IFN in arbitrary fluorescence units Geo TCR", "setting": "[3]", "value": "464 arbitrary fluorescence units"}]}
{"substance": "[PHG][NLE]LGFVFTL", "values": [{"measurement": "% CD8+ T cells producing IFN-γ % IFN", "setting": "[2]", "value": 2.7, "unit": "%"}, {"measurement": "Geometric mean IFN-γ in arbitrary fluorescence units Geo IFN", "setting": "[2]", "value": "238 arbitrary fluorescence units"}, {"measurement": "% inhibition at T=4H and T=24H FP 4h", "setting": "HLA-A0201", "value": 77, "unit": "%"}, {"measurement": "% inhibition at T=4H and T=24H FP 24h", "setting": "HLA-A0201", "value": 77, "unit": "%"}, {"measurement": "IC50 Ratio", "setting": "HLA-A0201", "value": 4}, {"measurement": "% Positive TCR recognition % TCR", "setting": "[3]", "value": 3.58, "unit": "%"}, {"measurement": "Geometric mean IFN in arbitrary fluorescence units Geo TCR", "setting": "[3]", "value": "328 arbitrary fluorescence units"}]}
{"substance": "[am-phg]ILGFV[4-FPHE]TL", "values": [{"measurement": "% CD8+ T cells producing IFN-γ % IFN", "setting": "[2]", "value": 2.2, "unit": "%"}, {"measurement": "Geometric mean IFN-γ in arbitrary fluorescence units Geo IFN", "setting": "[2]", "value": "208 arbitrary fluorescence units"}, {"measurement": "% inhibition at T=4H and T=24H FP 4h", "setting": "HLA-A0201", "value": 92, "unit": "%"}, {"measurement": "% inhibition at T=4H and T=24H FP 24h", "setting": "HLA-A0201", "value": 93, "unit": "%"}, {"measurement": "IC50 Ratio", "setting": "HLA-A0201", "value": 6}, {"measurement": "% Positive TCR recognition % TCR", "setting": "[3]", "value": 3.27, "unit": "%"}, {"measurement": "Geometric mean IFN in arbitrary fluorescence units Geo TCR", "setting": "[3]", "value": "197 arbitrary fluorescence units"}]}
{"substance": "[am-phg][2-AOC]AGIGILT[PRG]", "values": [{"measurement": "% inhibition at T=4H and T=24H FP 4h", "setting": "HLA-A0201", "value": 80, "unit": "%"}, {"measurement": "% inhibition at T=4H and T=24H FP 24h", "setting": "HLA-A0201", "value": 77, "unit": "%"}, {"measurement": "IC50 Ratio", "setting": "HLA-A0201", "value": "24.3 and 24"}, {"measurement": "% CD8+ T cells producing IFN-γ 0H", "setting": "[6]; peptide 0.5 pM", "value": 0, "unit": "%"}, {"measurement": "Geometric mean IFN-γ in arbitrary fluorescence units 0H", "setting": "[6]; peptide 0.5 pM", "value": "104 arbitrary fluorescence units"}, {"measurement": "% CD8+ T cells producing IFN-γ 2H", "setting": "[6]; peptide 0.5 pM", "value": 26, "unit": "%"}, {"measurement": "Geometric mean IFN-γ in arbitrary fluorescence units 2H", "setting": "[6]; peptide 0.5 pM", "value": "207 arbitrary fluorescence units"}, {"measurement": "% CD8+ T cells producing IFN-γ 4H", "setting": "[6]; peptide 0.5 pM", "value": 30, "unit": "%"}, {"measurement": "Geometric mean IFN-γ in arbitrary fluorescence units 4H", "setting": "[6]; peptide 0.5 pM", "value": "378 arbitrary fluorescence units"}, {"measurement": "% CD8+ T cells producing IFN-γ 24H", "setting": "[6]; peptide 0.5 pM", "value": 1, "unit": "%"}, {"measurement": "Geometric mean IFN-γ in arbitrary fluorescence units 24H", "setting": "[6]; peptide 0.5 pM", "value": "116 arbitrary fluorescence units"}, {"measurement": "% CD8+ T cells producing IFN-γ 48H", "setting": "[6]; peptide 0.5 pM", "value": 0, "unit": "%"}, {"measurement": "Geometric mean IFN-γ in arbitrary fluorescence units 48H", "setting": "[6]; peptide 0.5 pM", "value": "88 arbitrary fluorescence units"}, {"measurement": "% CD8+ T cells producing IFN-γ 0H", "setting": "[6]; peptide 50 pM", "value": 0, "unit": "%"}, {"measurement": "Geometric mean IFN-γ in arbitrary fluorescence units 0H", "setting": "[6]; peptide 50 pM", "value": "109 arbitrary fluorescence units"}, {"measurement": "% CD8+ T cells producing IFN-γ 2H", "setting": "[6]; peptide 50 pM", "value": 27, "unit": "%"}, {"measurement": "Geometric mean IFN-γ in arbitrary fluorescence units 2H", "setting": "[6]; peptide 50 pM", "value": "258 arbitrary fluorescence units"}, {"measurement": "% CD8+ T cells producing IFN-γ 4H", "setting": "[6]; peptide 50 pM", "value": 30, "unit": "%"}, {"measurement": "Geometric mean IFN-γ in arbitrary fluorescence units 4H", "setting": "[6]; peptide 50 pM", "value": "592 arbitrary fluorescence units"}, {"measurement": "% CD8+ T cells producing IFN-γ 24H", "setting": "[6]; peptide 50 pM", "value": 16, "unit": "%"}, {"measurement": "Geometric mean IFN-γ in arbitrary fluorescence units 24H", "setting": "[6]; peptide 50 pM", "value": "187 arbitrary fluorescence units"}, {"measurement": "% CD8+ T cells producing IFN-γ 48H", "setting": "[6]; peptide 50 pM", "value": 1, "unit": "%"}, {"measurement": "Geometric mean IFN-γ in arbitrary fluorescence units 48H", "setting": "[6]; peptide 50 pM", "value": "86 arbitrary fluorescence units"}]}
{"substance": "[am-phg][2-AOC]YDFFVWL ({am‑phg-2‑AOC}-YDFFVWL; reading uncertain; also: printed as [am-phg][2-AOC]YDFFVWL)", "values": [{"measurement": "% CD8+ T cells producing IFN-γ", "setting": "[1]", "value": "significantly above background level"}]}
